Data on 2 compounds can be found in patent US20200031920A1, “Combination Therapy for Treating Cancer” (The George Washington University, priority 2017, published 2020).

pIC50: −log10 of the molar value.

Assay [1] relates to SKOV3 CR cells. Put plainly: cell viability / proliferation (SRB) assay, cisplatin resistant SKOV3 CR cells. The assay is classed as cell-based. Conditions: combination with carboplatin, CI<1 synergism.
In another assay the target is JAK2 (Homo sapiens, UniProt O60674). Put plainly: in vitro kinase profiling, more than 450 human kinases. Format: binding. Conditions: data not shown. Here is the method: To determine whether LY2784544 is able to sensitize SKOV3 CR cells to cisplatin in vivo, SKOV3 CR cells were implanted subcutaneously into nude mice. When the tumor volume reached 100 mm^3, mice were randomized to receive intraperitoneal injections of vehicle, cisplatin (8 mg/kg on days 1 and 8), LY2784544 (15 mg/kg/d from day 1 to day 14), or the combination of cisplatin and LY2784544. […] To evaluate whether this in vivo tumor suppression was through inhibition of the JAK2 pathway and increased apoptosis, the tumor samples four days after full dosage treatment were collected. […] Quantification of phosphorylated JAK2 and TUNEL staining in tumor tissues treated was performed (FIG. 28). […] To confirm the selectivity of LY2784544, an in vitro kinase profiling was conducted to examine the interaction of LY2784544 with more than 450 human kinases.

The subject of assay [2] is SKOV3 CR cells. Description: combinational high throughput screen with cisplatin. Format: cell-based. As to conditions: in combination with DMSO, 1 μM cisplatin or 20 μM cisplatin. An excerpt: A combinational HTS using multiple compound libraries including NPC (NIH Pharmaceutical Collection), MIPE (Mechanism interrogation plate), and LOPAC (The Library of Pharmacologically Active Compounds) was used to identify compounds that can overcome cisplatin resistance of SKOV3 CR cells (FIG. 5). The library of pharmacologically active compounds (LOPAC®) of 1280 compounds (1) was purchased from Sigma. The NCGC Pharmaceutical Collection (NPC) of 2816 compounds and mechanism interrogation plate (MIPE) library of 1920 compounds were previously described. Bromberg, J Clin Invest 109: 1139-1142 (2002) and Buchert et al., Oncogene 35: 939-951 (2016). Compounds from all libraries were obtained as powder and dissolved in dimethyl sulfoxide (DMSO) […]. Combinational HTS was performed as previously described. Szasz et al., Oncotarget 7: 49322-49333 (2016). A total of 6,016 compounds were screened. […] In the second screen, these 112 compounds were selected for a dose-response confirmation screen in combination with DMSO, 1 μM cisplatin or 20 μM cisplatin (FIG. 5).

In the next assay the test system is PEO1 cells. Put plainly: cell proliferation assay, PEO1 cells. Conditions: 5 days. The assay is classed as cell-based. The text has this:
FIG. 63 is a line graph showing the proliferation of PEO1 and PEO4 cells treated with increasing concentrations of cisplatin for 5 days. Data are represented as mean±SD from three independent experiments performed in triplicate. Indicated IC50 values represent the mean of […] independent experiments performed in triplicate.
For ovarian cancer, recurrence more than 12 months after initial chemotherapy was considered as platinum sensitive. PEO4 was derived from the patient 10 months later when they had progressive disease and had become cisplatin resistant.

For another assay, the system named is IL-11. Put plainly: IL-11 secretion by ELISA in cell culture medium. Format: cell-based, human. As to conditions: SKOV3 cells, various small doses of cisplatin, four days. Here is the method: (§1) FIG. 69 are bar graphs ((A)-(C) and (E)-(F)) and illustrations ((D) and (G)) showing that reactive oxygen species (ROS) induces IL-11 expression. (A) is a bar graph showing quantification of ROS production in SKOV3 and SKOV3 CR cells. Data are represented as means±SD from three independent experiments. **p<0.01. Scale bar, 100 μm. (B) is a bar graph showing quantification of ROS production in SKOV3 CR cells after treatment with the ROS inhibitor YCG063 at 20 μM for 24 hr. Data are represented as means±SD from three independent experiments. ***p<0.001. (C) is a bar graph showing IL-11 levels measured by ELISA in the medium of SKOV3 CR cells treated with YCG063 at 20 μM for 24 hr. Data are represented as mean±SD from three independent experiments performed in triplicate. ***p<0.001. (D) is an illustration showing an immunoblot of phosphorylated JAK2 and STAT5 in SKOV3 CR cells treated with YCG063 (20 μM) for 24 hr. (E) is a bar graph showing quantification of ROS production in SKOV3 cells after treated with the ROS inhibitor YCG063 (20 μM), cisplatin (1 μM), or both for 24 hr. Data are represented as means±SD from three independent experiments. **p<0.01, ***p<0.001, n.s. means not significant by one-way ANOVA. (F) is a bar graph showing IL-11 levels measured by ELISA in SKOV3 cells treated with YCG063 (20 μM), cisplatin (1 μM) or both for 24 hr. Data are represented as mean±SD from three independent experiments performed in triplicate. ***p<0.001 by one-way ANOVA. (G) is an illustration showing an immunoblot of phosphorylated JAK2 and STAT5 in SKOV3 CR cells treated with YCG063 (20 μM), cisplatin (1 μM) or both for 24 hr.
Next, the factor from medium that contributes to cisplatin resistance of SKOV3 CR cells was investigated. […] The cell-free culture medium, mouse serum, and patient serum were analyzed for IL-11 levels using a human IL-11 ELISA kit (R&D Systems) according to the manufacturer's instructions. The absorbance was read at 450 nm using a microplate reader (BioTek). The data were normalized to the cell number. […]
In general terms: An ELISA detects its analyte on a solid surface through an enzyme-linked reagent.

Assay [3] deals with reactive oxygen species (ROS). Put plainly: ROS production (CellROX Orange reagent). The assay is classed as cell-based. Conditions: SKOV3 cells, YCG063 20 μM, cisplatin 1 μM, 24 hr. How it is done: as §1, with “(D) is an illustration showing an immunoblot of phosphorylated JAK2 and STAT5 in SKOV3 CR cells treated with YCG063 (20 μM) for 24 hr.” left out, “Data are represented as means±SD from three independent experiments. **p<0.01, ***p<0.001, n.s. means not significant by one-way ANOVA.” left out, “Data are represented as mean±SD from three independent experiments performed in triplicate. ***p<0.001 by one-way ANOVA. (G) is an illustration showing an immunoblot of phosphorylated JAK2 and STAT5 in SKOV3 CR cells treated with YCG063 (20 μM), cisplatin (1 μM) or both for 24 hr.” left out
DNA damage induces generation of reactive oxygen species (ROS). […] ROS was detected with a live cell-permeable, fluorophore CellROX Orange reagent (Thermo Fisher Scientific) according to the manufacturer's instructions. […] ROS intensity was analyzed using ImageJ (NIH) software. […]

Sequence of JAK2 (O60674 whole entry): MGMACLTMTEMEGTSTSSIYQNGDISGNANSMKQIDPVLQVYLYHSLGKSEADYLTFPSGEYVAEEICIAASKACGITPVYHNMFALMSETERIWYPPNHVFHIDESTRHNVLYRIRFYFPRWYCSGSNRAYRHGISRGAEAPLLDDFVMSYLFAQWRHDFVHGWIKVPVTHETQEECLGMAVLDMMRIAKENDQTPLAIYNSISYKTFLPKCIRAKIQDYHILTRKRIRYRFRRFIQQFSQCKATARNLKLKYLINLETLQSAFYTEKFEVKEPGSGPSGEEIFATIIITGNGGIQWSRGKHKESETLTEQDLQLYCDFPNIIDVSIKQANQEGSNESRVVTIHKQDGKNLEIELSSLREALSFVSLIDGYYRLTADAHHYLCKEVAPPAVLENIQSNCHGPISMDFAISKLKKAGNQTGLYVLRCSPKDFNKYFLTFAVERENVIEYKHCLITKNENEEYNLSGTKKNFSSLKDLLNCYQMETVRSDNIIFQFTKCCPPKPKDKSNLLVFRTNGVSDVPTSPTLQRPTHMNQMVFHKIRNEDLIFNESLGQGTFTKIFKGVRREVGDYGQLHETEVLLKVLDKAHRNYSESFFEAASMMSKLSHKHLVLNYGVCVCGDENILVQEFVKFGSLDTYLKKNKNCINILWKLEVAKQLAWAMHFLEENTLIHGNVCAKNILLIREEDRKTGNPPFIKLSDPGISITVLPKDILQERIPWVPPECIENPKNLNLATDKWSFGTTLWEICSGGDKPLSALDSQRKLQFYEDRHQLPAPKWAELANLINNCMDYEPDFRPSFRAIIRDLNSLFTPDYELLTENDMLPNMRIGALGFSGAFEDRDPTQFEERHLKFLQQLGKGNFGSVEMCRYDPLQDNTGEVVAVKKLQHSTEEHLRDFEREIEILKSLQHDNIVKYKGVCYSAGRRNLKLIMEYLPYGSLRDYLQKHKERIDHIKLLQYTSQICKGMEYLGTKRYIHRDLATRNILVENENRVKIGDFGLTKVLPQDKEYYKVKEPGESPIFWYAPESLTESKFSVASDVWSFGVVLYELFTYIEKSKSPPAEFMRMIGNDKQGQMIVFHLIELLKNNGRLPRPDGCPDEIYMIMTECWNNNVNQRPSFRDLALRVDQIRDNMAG

Consider `Cc1cc(Nc2cc(CN3CCOCC3)c3nc(C)c(Cc4ccc(Cl)cc4F)n3n2)n[nH]1` [LY2784544], for which the “medium CI (combination index)” value with SKOV3 CR cells [1] was 0.75. For the same compound, the “binding selectivity among kinases” value on JAK2 is “stronger binding to JAK2 than JAK1 and TYK2”. Further, the “sensitization to cisplatin in second (dose-response confirmation) screen” value in the assay with SKOV3 CR cells [2] is “significantly sensitize SKOV3 CR cells to cisplatin”.

As a reminder, the pIC50 is −log10 of the IC50, conventionally taken in molar units. The low end stands for a high IC50, the high end for a low IC50. In the assay on PEO1 cells, `N.N.[Cl][Pt][Cl]` [cisplatin] showed a pIC50 of 6.49. Besides, the IL-11 secretion entry in the assay with IL-11 is listed as “increased in a cisplatin dose dependent manner”. Besides, the ROS production entry in assay [3] is given as “activated ROS production”.
